In patent US10179775B2, “Cyclooctenes for bioorthogonol reactions” (The General Hospital Corporation, priority 2014, dated 2019):
Entries after “also recorded” stand apart in the source; their conditions may differ.

Tests used:
Assay type in all cases: physicochemical
[1] = Chemical stability in the presence of cysteine by 1H NMR; details: 37° C.
[2] = Spontaneous isomerization in D2O or D2O:DMSO-d6 without nucleophile by 1H NMR
Experimental: Bulk samples of the compounds described above in Examples 1-3 were stored at −20° C. for six months. […] The spontaneous isomerization took almost 5 days at 37° C. and more than 12 days at room temperature. […] With 22, a similar degree of isomerization was observed only after 63 hours at room temperature in D2O.
(§1) Measurements were taken in the following intervals: mercaptoethanol: 0 h, 2 h, 11 h, 17 h and 25 h; cysteine: 0 h, 6 h and 14 h; s-TCO without nucleophile at room temperature: 1 h, 7 h and 14 h.
(§2) In each case the ratio of the integrals of the cis-double bond to the sum of the integrals of the cis- and trans-double bonds was calculate.

[3] = Chemical stability in the presence of cysteine by 1H NMR; details: 37° C.; remark: listed apart in the source
Experimental: (§3) The chemical stability of the compounds of Examples 1-3 was also investigated in the presence of thiols (cysteine and mercaptoethanol) by NMR in D2O:DMSO-d6 10:1 v/v at 37° C.
(§4) The solutions were prepared by the dilution of a stock solution prepared in DMSO-d6. An end concentration of 20 mM of the cyclooctenes was used except for the s-TCO, which was used in 10 mM end concentration due to poorer solubility. A 20 mM solution could not be prepared by dilution with D2O from DMSO-d6 stock solution without the precipitation of s-TCO. Nucleophiles mercaptoethanol and cysteine were used in 48 mM end concentration. Cysteine precipitated very soon from the solution. In all cases reactions were followed by ^1H NMR.
as §1, §2

[4] = Solubility in DMSO/water (D2O) mixtures; details: dilution with D2O from DMSO-d6 stock solution (D2O:DMSO-d6 10:1)
Experimental: as §4
The conjugates were tested in imaging experiments (FIG. 1). An advantage of the new trans cyclooctene derivatives lies in their improved solubility in DMSO/water mixtures. Bioorthogonal imaging experiments of PARP protein in HT1080 cells (expressing PARP1 fused to mCherry) were successful with all three new compounds, (FIG. 1). The imaging experiments were performed by treating HT1080 cells (expressing PARP1 fused to mCherry) with 5 μM compound 45 (a-d), 46 (e-h) and 47 (i-l) for 30 minutes. After washing with growth media three times for 5 minutes each, cells were incubated for 30 minutes with 1 μM of CFDA-Tz for bio-orthogonal reaction inside the live cells. Following fixation, 40× images were collected by deconvolution microscopy a, e, i) bright field images; b, f, j) Olaparib-TCO/Tz-CFDA staining; c, g, k) PARP1-mCherry, d, h, l) merged images (see FIG. 1). […]

[5] = Spontaneous isomerization in D2O or D2O:DMSO-d6 without nucleophile by 1H NMR; details: D2O:DMSO-d6 (10:1 v/v), room temperature, no nucleophile
[6] = Chemical stability in the presence of mercaptoethanol by 1H NMR; design: Icis / Itrans: unit not given here; details: 37° C.; for Icis / Itrans / Itrans/(Icis + Itrans): mercaptoethanol
Experimental: as §3, §4
Measurements were taken in the following intervals: mercaptoethanol: 0 h, 2 h, 11 h, 17 h and 25 h; cysteine: 0 h, 6 h and 14 h; s-TCO without nucleophile at room temperature: 1 h, 7 h and 14 h. […]

[7] = D2O:DMSO-d6 (10:1 v/v), room temperature, no nucleophile, t 1 h
[8] = D2O:DMSO-d6 (10:1 v/v), room temperature, no nucleophile, t 7 h
[9] = D2O:DMSO-d6 (10:1 v/v), room temperature, no nucleophile, t 14 h

OCC1C2CCC=CCCC12 (centres unmarked) [s-TCO, reference compound]
Itrans/(Icis + Itrans) ([1]; t 0 h): 0.913
Itrans/(Icis + Itrans) ([1]; t 6 h): 0.652
Itrans/(Icis + Itrans) ([1]; t 14 h): 0.192
isomerization after 14 hours ([2]; D2O:DMSO-d6 10:1, room temperature, 14 hours): at least 5%
Itrans/(Icis + Itrans) ([2]; D2O:DMSO-d6 (10:1 v/v), room temperature, no nucleophile, t 0 h): 1
Icis [2, 7]: 0.03
Itrans [2, 7]: 2
Icis [2, 8]: 0.06
Itrans [2, 8]: 2
Icis [2, 9]: 0.1
Itrans [2, 9]: 2
chemical stability / isomerization, result in words ([3]; 48 mM cysteine, 20 mM cyclooctene (s-TCO 10 mM), D2O:DMSO-d6 10:1 v/v, 0-14 h): isomerization of the trans isomer to the cis isomer; also recorded: isomerization of the trans-isomer to the cis-isomer; also recorded: undergo isomerization/decomposition
trans-isomer still present after 6 hours ([3]; cysteine, 6 hours): 65%
Icis ([3]; cysteine, t 0 h): 0.19
Itrans ([3]; cysteine, t 0 h): 2
Icis ([3]; cysteine, t 6 h): 1.07
Itrans ([3]; cysteine, t 6 h): 2
Icis ([3]; cysteine, t 14 h): 8.42
Itrans ([3]; cysteine, t 14 h): 2
concentration preparable without precipitation [4]: < 20000 µM
Icis ([5]; t 0 h): 0
Itrans ([5]; t 0 h): 2
Itrans/(Icis + Itrans) ([5]; t 1 h): 0.985
Itrans/(Icis + Itrans) ([5]; t 7 h): 0.971
Itrans/(Icis + Itrans) ([5]; t 14 h): 0.952
chemical stability / isomerization, result in words ([6]; 48 mM mercaptoethanol, 20 mM cyclooctene (s-TCO 10 mM), D2O:DMSO-d6 10:1 v/v, 0-25 h): isomerization of the trans isomer to the cis isomer; also recorded: occurred together with unidentified side reactions; also recorded: undergo isomerization/decomposition; also recorded: most of the s-TCO disappeared within the first two hours
Icis ([6]; t 0 h): 1.19
Itrans ([6]; t 0 h): 2
Itrans/(Icis + Itrans) ([6]; t 0 h): 0.627
Icis ([6]; t 2 h): 87
Itrans ([6]; t 2 h): 2
Itrans/(Icis + Itrans) ([6]; t 2 h): 0.023
Icis ([6]; t 11 h): 2
Itrans ([6]; t 11 h): 0
Itrans/(Icis + Itrans) ([6]; t 11 h): 0
Icis ([6]; t 17 h): 2
Itrans ([6]; t 17 h): 0
Itrans/(Icis + Itrans) ([6]; t 17 h): 0
Icis ([6]; t 25 h): 2
Itrans ([6]; t 25 h): 0
Itrans/(Icis + Itrans) ([6]; t 25 h): 0
